ChEMBL document CHEMBL1201862, “PubChem BioAssay data set” (2004)
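Compound exposure: 48 hours, 5 concentrations, 96-well plates. The concentration for 50% growth inhibition is given as GI50.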 The source made the active and inactive calls. No stated cut-off is given here; in the data, active = GI50 up to about 1.1 µM and inactive = higher.

Experiments:
Assay in all cases: DTP human tumour cell line panel, 48 h
SK-OV-3 = test system: SK-OV-3
HT-29 = test system: HT-29
SNB-75 = test system: SNB-75
MDA-MB-231 = test system: MDA-MB-231
MCF7 = test system: MCF7
SN12C = test system: SN12C
SF-268 = test system: SF-268
UACC-257 = test system: UACC-257
COLO 205 = test system: COLO 205
CAKI-1 = test system: CAKI-1
SK-MEL-28 = test system: SK-MEL-28
NCI-H23 = test system: NCI-H23
M14 = test system: M14
EKVX = test system: EKVX
OVCAR-8 = test system: OVCAR-8
OVCAR-4 = test system: OVCAR-4
Malme-3M = test system: Malme-3M
SNB-19 = test system: SNB-19
RXF 393 = test system: RXF 393
HOP-62 = test system: HOP-62

Measured: GI50

CC(C)(C)OC(=O)N[C@H]1CC2(C=C(Cl)C(=O)C(Cl)=C2)OC1=O
inactive: SK-OV-3 > 46.5 µM | HT-29 11.5 µM | SNB-75 20.5 µM | MDA-MB-231 17.1 µM | MCF7 6.79 µM | SN12C 18.5 µM | SF-268 17.3 µM | UACC-257 13.8 µM | COLO 205 3.97 µM | CAKI-1 13.5 µM | SK-MEL-28 11.4 µM | NCI-H23 17.3 µM | M14 14.4 µM | EKVX 15.2 µM | OVCAR-8 17.1 µM | OVCAR-4 16.3 µM | Malme-3M 11.5 µM | SNB-19 > 100 µM | RXF 393 10.1 µM | HOP-62 > 58.9 µM
